Data on 4 molecules can be found in PMC10488193, “Evaluation of the Chemical Stability, Membrane Permeability and Antiproliferative Activity of Cyclic Diarylheptanoids from European Hornbeam (Carpinus betulus L.)” (International Journal of Molecular Sciences, 2023).

The subject of data set [1] is HT-29 (colorectal carcinoma). The experiment in a line: In vitro antiproliferative activity, Alamar Blue assay. It is filed as cell-based. To be noted: Homo sapiens; HT-29, 24 h treatment, then three days culture, n = 2; read-out: IC50 ± SD. The procedure: (§1) For the experiments, the following human cell lines were used: A2058 (melanoma, derived from metastatic site: lymph node), HepG2 (hepatocellular carcinoma), U87 (glioblastoma), HT-29 (colorectal carcinoma) and HL-60 (acute promyelocytic leukaemia). Cell lines were generous gifts from Dr. […] (Department of Experimental Pharmacology, National Institute of Oncology, Budapest, Hungary). […] The cultures were maintained at 37 °C in a humidified atmosphere with 5% CO2. The cells were grown to confluency and then divided into 96-well tissue culture plates (Sarstedt, Nümbrecht, Germany) with an initial cell number of 5000 cells/well. Cells were incubated at 37 °C in a 5% CO2 humidified atmosphere overnight. Before the assay, 50 μL of the supernatant was removed and replaced with a 50 μL serum-free medium (SFM). […] The cells were treated for 24 h with the compounds and negative control cells (no compound control) were treated with SFM only (incubated at 37 °C). […] The percentage of cytostasis was calculated with the following equation: […] Data were evaluated with Excel (version: 365; Microsoft, Redmond, WA, USA) and the curves were defined using Microcal OriginPro (version: 2018; OriginLab, Northampton, MA, USA) software. In each case, two independent experiments were carried out with four parallel measurements and the mean IC50 values together with ±SD were represented. The Excel (version: 365) (Microsoft, Redmond, WA, USA) and Microcal OriginPro (version: 2018) (OriginLab, Northampton, MA, USA) softwares were used for data evaluation.

Data set [2] has as its system U87 (glioblastoma). The data set is described as above. Format: cell-based. Conditions: Homo sapiens; U87, 24 h treatment, then three days culture, n = 2; read-out: IC50 ± SD. The procedure: as §1
The subject of data set [3] is HL-60 (acute promyelocytic leukaemia). The description is as above. Format: cell-based. To be noted: Homo sapiens; HL-60, 24 h treatment, then three days culture, n = 2; read-out: IC50 ± SD. The procedure:
as §1

Data set [4] concerns A2058 (melanoma, derived from metastatic site: lymph node). The description is as above. It is filed as cell-based. To be noted: Homo sapiens; A2058, 24 h treatment, then three days culture, n = 2; read-out: IC50 ± SD. The procedure: as §1
The test system of data set [5] is HepG2 (hepatocellular carcinoma). Described as above. Conditions: Homo sapiens; HepG2, 24 h treatment, then three days culture, n = 2; read-out: IC50 ± SD. Format: cell-based. The procedure: as §1
Details of data set [6]: method as in PMID 12350169. To be noted: cited from earlier work.
Data set [7] is described as follows: PAMPA-GI. Format: in vitro ADME. To be noted: for Papp at 4 h, 100 µM: PAMPA, read-out: logPe PAMPA-GI (n = 9) (converted). The procedure: (§2) A parallel artificial membrane permeability assay (PAMPA) was used to determine the effective permeability (Pe) for the Carpinus diarylheptanoids. Stock solutions of the isolated compounds (10 mM in DMSO) were diluted with the defined buffer (pH 7.4 for the PAMPA-BBB and pH 6.8 for the PAMPA-GI assays) to obtain the donor solutions (composition: 297.0 μL buffer + 3.0 μL stock solution). Donor solutions were filtered through Phenex-RC 15 mm, 0.2 μm syringe filters (Gen-Lab Ltd., Budapest, Hungary).
For the PAMPA-BBB test, 5 μL of porcine polar brain lipid extract (PBLE) solution (16.0 mg PBLE + 8.0 mg cholesterol dissolved in 600.0 μL n-dodecane) was applied for each well of the 96-well polycarbonate-based filter donor plates (top plate) (Multiscreen™-IP, MAIPN4510, pore size 0.45 μm; Merck). For the PAMPA-GI assay, the wells of the top plate were coated with 5 μL of the mixture of 8.0 mg phosphatidylcholine + 4.0 mg cholesterol dissolved in 300.0 μL n-dodecane. The 150.0 μL aliquots of the filtrated donor solutions were placed on the membrane. The 96-well PTFE acceptor plates (bottom plates) (Multiscreen Acceptor Plate, MSSACCEPTOR; Merck), were filled with 300.0 μL buffer solution (0.01 M PBS buffer, pH 7.4). […]
After the incubation, the plates were separated and the compound concentrations in the donor (CD(t)) and acceptor (CA(t)) solutions were determined using the aforementioned UHPLC-DAD method (see Section 3.4). […] The effective permeability and the membrane retention in the PAMPA-BBB and the PAMPA GI experiments were calculated by Equations (3) and (4), respectively:(3) Pe=−2.303/A(t−τSS)·VA·VD/VA+VD·lg1−VA+VD/1−MR·VD×CAt/CD0 (4) Pe=−2.303/A(t−τSS))·1/1+ra·lg−ra+1+ra/1−MR×CDt/CD0 where Pe is the effective permeability coefficient (cm/s), A is the filter area (0.24 cm^2), VD and VA are the volumes in the donor (0.15 cm^3) and acceptor phases (0.30 cm^3), t is the incubation time (s), τSS is the time (s) to reach steady state (240 s), CD(t) is the concentration (mol/cm^3) of the compound in the donor phase at time t, CD(0) is the concentration (mol/cm^3) of the compound in the donor phase at time 0, MR is the estimated membrane retention factor (the estimated mole fraction of solute lost to the membrane) and ra is the sink asymmetry ratio (gradient-pH-induced), defined as:(5) ra=VD/VA×Pe(A→D)/Pe(D→A) (6) MR=1−CDt/CD0−VA/VDCAt/CD0
(§3) All experiments were performed in three triplicates on three consecutive days (n = 9); caffeine standard was used as positive, while rutin was used as negative control. Clog P values were calculated using ACD/ChemSketch (Freeware) 2 January 2020 (Advanced Chemistry Development, Inc., Toronto, ON, Canada).

The subject of data set [8] is HeLa human cervical adenocarcinoma cells. On the set-up: method as in PMID 28520428, PMID 28941682. Conditions: cited from earlier work.
Data set [9] relates to lipid peroxidation in human plasma. Details: method as in PMID 28520428. To be noted: cited from earlier work.
The subject of data set [10] is A375 human melanoma cell line. Details: method as in PMID 28208804. To be noted: cited from earlier work.
In data set [11] the test system is SK-Mel-28 human melanoma cell line. On the set-up: method as in PMID 28208804. To be noted: cited from earlier work.
The nature of data set [12]: PAMPA-BBB. Format: in vitro ADME. To be noted: pH 7.4, read-out: logPe PAMPA-BBB (n = 9) (converted). As to the method: as §2
For the PAMPA-BBB test, 5 μL of porcine polar brain lipid extract (PBLE) solution (16.0 mg PBLE + 8.0 mg cholesterol dissolved in 600.0 μL n-dodecane) was applied for each well of the 96-well polycarbonate-based filter donor plates (top plate) (Multiscreen™-IP, MAIPN4510, pore size 0.45 μm; Merck). […]
After the incubation, the plates were separated and the compound concentrations in the donor (CD(t)) and acceptor (CA(t)) solutions were determined using the aforementioned UHPLC-DAD method (see Section 3.4). […]
as §3

`O=C1C[C@H](O)[C@@H](O)Cc2ccc(O)c(c2)-c2cc(ccc2O)C[C@H]1O` [Compound 1, carpinontriol A]: the IC50 in data set [1] is > 100 µM; in [2], > 100 µM; in data set [3] it was > 100 µM; in data set [4], 14.9 ± 2.3 µM; in data set [5], > 100 µM. In addition, the “antioxidant activity (in words)” value in data set [6] is listed as “only weak antioxidant activity”. Besides, the Papp at 4 h, 100 µM in [7] is 0.562 ×10⁻⁶ cm/s.
Take `O=C1CCc2ccc(O)c(c2)-c2cc(ccc2O)C[C@H](O)[C@H](O)[C@H]1O` [Compound 2, carpinontriol B]: the IC50 in data set [1], in data set [2], in [3], in data set [4], in [5] and in data set [8] was > 100 µM each time. Also, the “antioxidant activity (in words)” value in data set [6] is “only weak antioxidant activity”. For the same molecule, the “lipid peroxidation induced by H2O2 (in words)” value in data set [9] is listed as “inhibited lipid peroxidation”. In addition, the “cytotoxic concentration (not cytotoxic up to)” value in data set [10] and in [11] was > 1000 µM each time. Moreover, the Papp at 4 h, 100 µM in data set [7] is 3.47 ×10⁻⁶ cm/s.
`O=C1CCc2ccc(O)c(c2)-c2cc(ccc2O)C[C@@H](O)[C@H](O)C1` [Compound 3, giffonin X]: the IC50 in [1], in [2], in [3], in [4] and in data set [5] was > 100 µM throughout. Moreover, the Papp at 4 h, 100 µM was 1.2 ×10⁻⁶ cm/s in data set [12] and 6.03 ×10⁻⁶ cm/s in data set [7].
`O=C1CCC(=O)C(O)Cc2ccc(O)c(c2)-c2cc(ccc2O)C1` (stereo not shown) [Compound 4, 3,12,17-trihydroxytricyclo [12.3.1.1^2,6]nonadeca-1(18),2(19),3,5,14,16-hexaene-8,11-dione]: the IC50 in [1], in [2], in data set [3], in [4] and in data set [5] was > 100 µM each time. Moreover, in data set [7] (donor pH 6.8, acceptor pH 7.4, 37 °C, 4 h, Pe in cm/s, n.d. = not detected in the acceptor phase), the “logPe PAMPA-GI (n = 9)” value was “not detected in the acceptor phase”.
